Data published in patent US20140342043A1, “Rebaudioside Sweetener Compositions and Food Products Sweetened with Same” (PepsiCo, Inc., priority 2013, published 2014).
Residues, ends and D or L forms follow the SMILES beside them.

What was measured:
[1] = test system: 14 expertly trained panelists; assay: Sensory studies of sweetness with acidified water samples; assay type: in vivo, human; settings: for Sweetness (score): acidified water, Aspartame 400 ppm, scale 0 to 15, 15 being the sweetest
Method: Sensory studies with two sets of acidified water samples were performed and are described below, where Set 1: HFCS-55 11.7%; Aspartame 400 ppm, and rebaudioside M 400 ppm; and Set 2: Aspartame 400 ppm, Rebaudioside M 400 ppm and Rebaudioside D 400 ppm. The sensory studies were conducted by 14 expertly trained panelists with two evaluations performed for each set. The scale for scoring was 0 to 15, with 15 being the sweetest. The letters shown in Table 2 and Table 3, along with the numerical sweetness values will be understood by those skilled in the art to designate whether or not a statistically significant difference in taste was found. Thus, it can be seen in Table 1 that for Set 1 a statistically significant difference was found between the three sweeteners. It can be seen in Table 2 that for Set 2 a statistically significant difference in sweetness was found for rebaudioside M versus the other two sweeteners. More generally, it can be seen that for both Set 1 and Set 2, rebaudioside M had noticeably higher sweetness values.

[2] = Differential scanning calorimetry (FIG. 4); assay type: physicochemical; settings: second DSC run showing little change
From the text: FIG. 4 is a differential scanning calorimetry graph for rebaudioside M.

[3] = Taste comparison of rebaudioside M with other potent sweeteners in beverages; assay type: in vivo
[4] = Solubility in cola syrup preparation; assay type: physicochemical; settings: cola syrup for 1-plus-5 throw
Method: Samples of finished ready-to-drink cola beverage were prepared for each of three different formulations. The formulations were identical except that syrup variant 1 used rebaudioside A as the sweetener, syrup variant 2 used rebaudioside D as the sweetener, and syrup variant 3 used rebaudioside M as the sweetener in accordance with one aspect of the invention of the present disclosure. For the ready-to-drink cola beverage samples of formulation variant 1 and formulation variant 3, 2.0 liters of syrup were prepared suitable for use in a 1-plus-5 throw with carbonated water to make the corresponding ready-to-drink cola beverage samples. To prepare variant 1 (comprising rebaudioside A as the sweetener) and variant 3 (comprising rebaudioside M as the sweetener), the ingredients listed in Table 4, below, were added (in the sequence listed) to approximately 1.0-1.5 liter purified water with stirring. Purified water was then added until the syrup was 2 liters in volume. Then 50 mL portions of the syrup were added respectively to 250 mL portions of carbonated water, i.e., a “1-plus-5 throw” to obtain samples of finished ready-to-drink cola beverage corresponding to each of the two syrup variants. […] Specifically, the unsweetened cola beverage samples were made first in sample bottles. Then, to each bottle 400 ppm of Reb D was carefully added in. […]

[5] = Table 2, Rebaudioside D 400 ppm, Rebaudioside M 400 ppm
[6] = Table 3, HFCS-55 11.7%, rebaudioside M 400 ppm

SMILES | Sweetness (score) [1, 5] | Sweetness (score) [1, 6] | Sweetness relative to other sweeteners ([1]; conclusion from Table 2 and Table 3, 400 ppm in acidified water) | Thermo-stability [2] | Sweetness intensity relative to Reb A ([3]; in vivo) | Bitterness relative to the same concentration of rebaudioside A ([3]; otherwise identical acidic aqueous carbonated beverages) | Solubility [4]
C=C1C[C@@]23CC[C@H]4[C@@](C)(CCC[C@@]4(C)C(=O)O[C@@H]4O[C@H](CO)[C@@H](O)[C@H](O[C@@H]5O[C@H](CO)[C@@H](O)[C@H](O)[C@H]5O)[C@H]4O[C@@H]4O[C@H](CO)[C@@H](O)[C@H](O)[C@H]4O)[C@@H]2CC[C@]1(O[C@@H]1O[C@H](CO)[C@@H](O)[C@H](O[C@@H]2O[C@H](CO)[C@@H](O)[C@H](O)[C@H]2O)[C@H]1O[C@@H]1O[C@H](CO)[C@@H](O)[C@H](O)[C@H]1O)C3 [Rebaudioside M, rebaudioside M] | 7.58 | 8.00 | significantly sweeter than aspartame and rebaudioside D | good thermo-stability | significantly higher than Reb A | significantly lower bitterness | 
C=C1C[C@@]23CC[C@H]4[C@@](C)(CCC[C@@]4(C)C(=O)O[C@@H]4O[C@H](CO)[C@@H](O)[C@H](O)[C@H]4O[C@@H]4O[C@H](CO)[C@@H](O)[C@H](O)[C@H]4O)[C@@H]2CC[C@]1(O[C@@H]1O[C@H](CO)[C@@H](O)[C@H](O[C@@H]2O[C@H](CO)[C@@H](O)[C@H](O)[C@H]2O)[C@H]1O[C@@H]1O[C@H](CO)[C@@H](O)[C@H](O)[C@H]1O)C3 [Rebaudioside D, rebaudioside D, reference compound] | 6.97 |  |  |  |  |  | poor solubility
COC(=O)[C@H](Cc1ccccc1)NC(=O)[C@@H](N)CC(=O)O [Aspartame, reference compound] (H-Asp-Phe-OMe) | 6.39 | 6.30 |  |  |  |  | 
